Assay results as given in ChEMBL document CHEMBL1201862, “PubChem BioAssay data set” (2004).
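Exposure lasted 48 hours, with cells grown in 96-well plates and compounds tested at five concentrations. The concentration for 50% growth inhibition is given as GI50.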 Calls of active or inactive are those of the source. Cut-off read from the data, not from the text of the source: active = GI50 up to about 1.1 µM and inactive = higher.

How the values were obtained:
Assay in all cases: NCI tumour cell line growth inhibition, 48 h
786-0 = tested on: 786-0
HCT-116 = tested on: HCT-116
HCT-15 = tested on: HCT-15
KM12 = tested on: KM12
M19-MEL = tested on: M19-MEL
NCI-H522 = tested on: NCI-H522
OVCAR-3 = tested on: OVCAR-3
SF-268 = tested on: SF-268
SK-MEL-2 = tested on: SK-MEL-2
SK-MEL-5 = tested on: SK-MEL-5
SR = tested on: SR
TK-10 = tested on: TK-10
HT-29 = tested on: HT-29
RXF 393 = tested on: RXF 393
SF-295 = tested on: SF-295
SNB-19 = tested on: SNB-19
EKVX = tested on: EKVX

| SMILES | GI50 (786-0) | GI50 (HCT-116) | GI50 (HCT-15) [µM] | GI50 (KM12) | GI50 (M19-MEL) | GI50 (NCI-H522) | GI50 (OVCAR-3) | GI50 (SF-268) | GI50 (SK-MEL-2) | GI50 (SK-MEL-5) | GI50 (SR) | GI50 (TK-10) | GI50 (HT-29) | GI50 (RXF 393) | GI50 (SF-295) | GI50 (SNB-19) | GI50 (EKVX) |
| --- | --- | --- | --- | --- | --- | --- | --- | --- | --- | --- | --- | --- | --- | --- | --- | --- | --- |
| C=C=C[P+](c1ccccc1)(c1ccccc1)c1ccccc1 | 5.02 µM (inactive) | 3.37 µM (inactive) | 11.5 | 13 µM (inactive) | 14.5 µM (inactive) | 2.24 µM (inactive) | 5.57 µM (inactive) | 15.3 µM (inactive) | 10.7 µM (inactive) | 5.86 µM (inactive) | 21.3 µM (inactive) | 26.2 µM (inactive) | – | – | – | – | – |
| CN(C)[C@@H]1C(O)=C(C(N)=O)C(=O)[C@@]2(O)C(O)=C3C(=O)c4c(O)cccc4C[C@H]3C[C@@H]12 | 2.31 µM (inactive) | 1.77 µM (inactive) | 4.8 | 2.13 µM (inactive) | 1.68 µM (inactive) | 2.13 µM (inactive) | 1.75 µM (inactive) | 1.73 µM (inactive) | 1.83 µM (inactive) | 1.75 µM (inactive) | 2.56 µM (inactive) | 2.52 µM (inactive) | 1.87 µM (inactive) | 1.69 µM (inactive) | 1.7 µM (inactive) | 1.97 µM (inactive) | – |
| Cc1nc2ccncc2[nH]1 | > 100 µM (inactive) | > 100 µM (inactive) | > 100 | – | > 100 µM (inactive) | – | > 100 µM (inactive) | > 100 µM (inactive) | > 100 µM (inactive) | > 100 µM (inactive) | > 100 µM (inactive) | > 100 µM (inactive) | > 100 µM (inactive) | > 100 µM (inactive) | > 100 µM (inactive) | > 100 µM (inactive) | > 100 µM (inactive) |
| COc1ccccc1/C=C1\C(=O)N(C(=O)Cc2ccccc2)N=C1C | > 100 µM (inactive) | > 100 µM (inactive) | > 100 | > 100 µM (inactive) | > 100 µM (inactive) | > 100 µM (inactive) | > 100 µM (inactive) | > 100 µM (inactive) | > 100 µM (inactive) | > 100 µM (inactive) | > 100 µM (inactive) | > 100 µM (inactive) | > 100 µM (inactive) | – | > 100 µM (inactive) | > 100 µM (inactive) | > 100 µM (inactive) |
| CC1C[C@@H]2C(=O)NC(=O)[C@@H]2c2c1c1ccccc1n2C (some centres not stated) | > 100 µM (inactive) | – | > 100 | > 100 µM (inactive) | > 100 µM (inactive) | > 100 µM (inactive) | > 100 µM (inactive) | > 100 µM (inactive) | > 100 µM (inactive) | > 100 µM (inactive) | – | > 100 µM (inactive) | > 100 µM (inactive) | > 100 µM (inactive) | > 100 µM (inactive) | > 100 µM (inactive) | > 100 µM (inactive) |
| COc1ccc(C2=NN(c3ccccc3)C[N+](c3ccc(OC)cc3)=N2)cc1 | 49.9 µM (inactive) | 33.7 µM (inactive) | 43.7 | 21.3 µM (inactive) | 30.5 µM (inactive) | 15.1 µM (inactive) | 22 µM (inactive) | 35.9 µM (inactive) | – | 14.7 µM (inactive) | 34 µM (inactive) | 42.4 µM (inactive) | 57.3 µM (inactive) | 26 µM (inactive) | 59.4 µM (inactive) | 28.4 µM (inactive) | 33.8 µM (inactive) |
| C/C=C(\NC(=O)C(CCCCN)NC(=O)C(C)NC(=O)C1CSC(C)C(NC(=O)C2CSCC(NC(=O)C(C)NC(=O)C(N)C(C)CC)C(=O)NC(CCCCN)C(=O)NC(Cc3ccccc3)C(=O)NC(CC(C)C)C(=O)N2)C(=O)N2CCCC2C(=O)NCC(=O)N1)C(=O)NCC(=O)NC1CSCC2NC(=O)C(Cc3ccc(O)cc3)NC(=O)C(CSC=CNC2=O)NC(=O)C(CC(N)=O)NC(=O)C(Cc2ccccc2)NC1=O (configuration not stated) | 35.6 µM (inactive) | > 100 µM (inactive) | > 100 | 66.2 µM (inactive) | 67.8 µM (inactive) | – | > 100 µM (inactive) | 33.4 µM (inactive) | > 100 µM (inactive) | 19.6 µM (inactive) | > 100 µM (inactive) | > 100 µM (inactive) | > 100 µM (inactive) | > 100 µM (inactive) | > 100 µM (inactive) | > 100 µM (inactive) | 52.2 µM (inactive) |
| Nc1nnc(N)n1N | > 100 µM (inactive) | > 100 µM (inactive) | > 100 | > 100 µM (inactive) | > 100 µM (inactive) | > 100 µM (inactive) | – | > 100 µM (inactive) | > 100 µM (inactive) | > 100 µM (inactive) | > 100 µM (inactive) | > 100 µM (inactive) | > 100 µM (inactive) | > 100 µM (inactive) | > 100 µM (inactive) | > 100 µM (inactive) | > 100 µM (inactive) |
| COc1ccc(/C(=N/NC(N)=O)C2(O)C(=O)Nc3ccc([N+](=O)[O-])cc32)cc1 (configuration not stated) | 15.7 µM (inactive) | 14.9 µM (inactive) | 20.7 | 22.6 µM (inactive) | 20.7 µM (inactive) | 21.8 µM (inactive) | 18.1 µM (inactive) | 18.5 µM (inactive) | 21.6 µM (inactive) | 27.3 µM (inactive) | 17.4 µM (inactive) | – | 19.4 µM (inactive) | – | – | > 10 µM (inactive) | > 100 µM (inactive) |
| COC(=O)C(Cc1nc2ccc(Cl)cc2nc1O)/C(=N/NC(N)=O)C(=O)Nc1ccc(Cl)cc1 (configuration not stated) | > 100 µM (inactive) | > 100 µM (inactive) | > 100 | > 100 µM (inactive) | > 100 µM (inactive) | > 100 µM (inactive) | > 100 µM (inactive) | > 100 µM (inactive) | > 100 µM (inactive) | > 100 µM (inactive) | > 100 µM (inactive) | > 100 µM (inactive) | > 100 µM (inactive) | > 100 µM (inactive) | > 100 µM (inactive) | > 100 µM (inactive) | 20.4 µM (inactive) |
| CN1c2ccccc2N(C)C2C1N(C)c1ccccc1N2C (configuration not stated) | 32.9 µM (inactive) | 12.7 µM (inactive) | 4.25 | 16 µM (inactive) | 6.84 µM (inactive) | 4.73 µM (inactive) | 8.71 µM (inactive) | 12.3 µM (inactive) | 9.59 µM (inactive) | 3.72 µM (inactive) | – | 36.9 µM (inactive) | 7.78 µM (inactive) | 11.1 µM (inactive) | 31.3 µM (inactive) | 18.8 µM (inactive) | 61.5 µM (inactive) |
| COC(=O)c1ccc(CS(=O)(=O)c2ccccc2)cc1 | > 100 µM (inactive) | 60.3 µM (inactive) | 39.5 | 51.9 µM (inactive) | 45.4 µM (inactive) | – | > 100 µM (inactive) | > 100 µM (inactive) | 38.5 µM (inactive) | 55.8 µM (inactive) | 45 µM (inactive) | > 100 µM (inactive) | 40.8 µM (inactive) | > 100 µM (inactive) | 61.7 µM (inactive) | > 100 µM (inactive) | > 100 µM (inactive) |
| CCOC(=O)Cn1c(=O)n(C)c(=O)c2[nH]cnc21 | > 100 µM (inactive) | > 100 µM (inactive) | > 100 | > 100 µM (inactive) | > 100 µM (inactive) | > 100 µM (inactive) | > 100 µM (inactive) | > 100 µM (inactive) | > 100 µM (inactive) | > 100 µM (inactive) | > 100 µM (inactive) | > 100 µM (inactive) | > 100 µM (inactive) | – | – | > 100 µM (inactive) | > 100 µM (inactive) |
| N#Cc1cccc(N2C(=O)c3ccc(C(=O)c4ccc5c(c4)C(=O)N(c4cccc(C#N)c4)C5=O)cc3C2=O)c1 | 64.4 µM (inactive) | > 100 µM (inactive) | > 100 | > 100 µM (inactive) | > 100 µM (inactive) | > 100 µM (inactive) | > 100 µM (inactive) | > 100 µM (inactive) | > 100 µM (inactive) | > 100 µM (inactive) | – | > 100 µM (inactive) | > 100 µM (inactive) | > 100 µM (inactive) | > 100 µM (inactive) | > 100 µM (inactive) | > 100 µM (inactive) |
| CN1N=C2c3ccccc3CC[C@H]2C1c1ccccc1 (some centres not stated) | 63.5 µM (inactive) | 18 µM (inactive) | 27 | 36.9 µM (inactive) | 15.7 µM (inactive) | 17.6 µM (inactive) | 41.8 µM (inactive) | > 100 µM (inactive) | 24.5 µM (inactive) | – | > 100 µM (inactive) | > 100 µM (inactive) | 22.9 µM (inactive) | 17 µM (inactive) | 35.3 µM (inactive) | 69.2 µM (inactive) | 49.3 µM (inactive) |
| COc1cc2c(cc1O)[C@H](C)C(c1ccc(Cl)cc1)O2 (some centres not stated) | 17.1 µM (inactive) | 16.1 µM (inactive) | 13.1 | 25.2 µM (inactive) | 15.8 µM (inactive) | 13.3 µM (inactive) | 37.4 µM (inactive) | 20.7 µM (inactive) | 21.3 µM (inactive) | 16.3 µM (inactive) | – | 24.4 µM (inactive) | 30.9 µM (inactive) | 24.6 µM (inactive) | 31 µM (inactive) | 74.8 µM (inactive) | 23 µM (inactive) |
| Brc1ccc(C[N+]23CN4CN(CN(C4)C2)C3)cc1 | 30.6 µM (inactive) | 28.1 µM (inactive) | 24.2 | > 100 µM (inactive) | 41.8 µM (inactive) | 17.1 µM (inactive) | 73.1 µM (inactive) | 40.2 µM (inactive) | – | – | > 10 µM (inactive) | > 100 µM (inactive) | – | 17 µM (inactive) | > 100 µM (inactive) | > 100 µM (inactive) | > 100 µM (inactive) |
